Like-named read-outs stand apart in the source and are kept apart here.
How the values were obtained:
in vivo = format: in vivo; conditions: mouse, in vivo, ip; i.p. in mice; N = 5, K = 4; read-out: LD50 and fiducial limits
From the text: (§1) The acute toxicity of the compounds of general formula (I) was investigated in mice using the Weil method (Weil C. S., Biometr. J. 8, 249, 1952).

[1] = test system: arrythmia induced by Aconitine in mice; assay: animal or person; format: in vivo; conditions: for change in vivo at 40 mg/kg / change in vivo at 35 mg/kg / change in vivo at 100 mg/kg / change in vivo at 25 mg/kg / change in vivo at 50 mg/kg / change in vivo at 20 mg/kg / change in vivo at 8.9 mg/kg: Mus musculus, iv; for % increase of the latency time to onset of initial cardiac arrythmia / % increase of the latency time to onset of tachycardia: with respect to the control group
Experimental: The antiarrhythmic effect of the compounds was also investigated in mice according to the P. W. Nwangwu, T. Holcslow procedure (P. W. Nwangwu, T. L. Holcslow; Arch. Int. Pharmacodyn. 229, 219 (1977)). Using aconitine (5γ/ml) as arrhythmogenic agent, the changes in the cardiac rhythm of the animals were recorded and the onset time of initial arrhythmia and/or of ventricular tachycardia were used as end point.

[2] = test system: plasma cholesterol (Chol.) triglycerides (TG) and α-, β- and pre-β-lipoproteins; assay: plasma cholesterol, triglycerides and lipoproteins in rats treated with olive oil; format: in vivo; conditions: olive oil 15 ml kg^-1, N = 6; for % Lipoproteins β: control 16.12 ± 1.48; for % Lipoproteins α: control 23.28 ± 2.19; for % Lipoproteins pre-β: control 56.45 ± 2.36; for Chol. (plasma cholesterol): control 96.18 ± 4.16; for TG (plasma triglycerides): control 215.36 ± 20.18
mice = assay: in vivo; format: in vivo; conditions: i.p. in mice; N = 5, K = 4
From the text: as §1

[3] = test system: rabbit's heart "in vitro"; assay: cardiokinetic effect: contractile force of isolated rabbit heart (Langendorff) after anoxia; conditions: 10^-6 M; 10 minutes from the interruption of the anoxic period; control 26.93 ± 5.31
Experimental: The cardiokinetic effect was investigated on rabbit hearts isolated by the Langendorff method. […] The isometric contractions, electro-cardiogram and coronary flow were recorded using a "Battaglia-Rangoni" polygraph. By removing the oxygen from the perfusion fluid, metabolic damage was induced in the cardiac muscle, up to an 80% reduction in the cardiac contractile force. Under these conditions of prolonged anoxia the aerobic glycolysis of the myocardium is slowed down with attendant formation of acid catabolites due to both the accumulation of pyruvic acid and its conversion to lactic acid which cannot be utilized because of the depression of pyridine enzymes, such as LDH (lactodehydrogenase). This has repercussions on the anaerobic glycolysis affecting an ever increasing number of enzymes, accompanied by a progressive and increasingly critical exhaustion of the myocardium. Thus a whole series of cardiac muscle fatigue levels occurs which can be observed by the behaviour of the examined parameters, namely the contractile force, coronary flow, heart rate and cardiac rhythm. As soon as the contractile force was reduced by 80%, the perfusion fluid was once again oxygenated either without adding other compounds (controls) or with the addition of the compounds under examination.

[4] = read-out: % increase of the latency time to onset of initial cardiac arrythmia
[5] = read-out: % increase of the latency time to onset of tachycardia

## CC(C)C(O)C(=O)OC(CC(=O)O)C[N+](C)(C)C (centres unmarked) [2-hydroxy isovaleryl CAR]
In vivo
  LD50: 1580 mg/kg
[1]; [4]
  change in vivo at 40 mg/kg: 60%
[1]; [5]
  change in vivo at 40 mg/kg: 30%

## C[N+](C)(C)CC(CC(=O)O)OC(=O)CC1CCCCC1 (centres unmarked) [cyclohexyl ACAR, cyclohexyl acetyl carnitine chloride]
[2]; 400 mg kg^-1 oral
  % Lipoproteins β: 12.15 ± 1.09%
  % Lipoproteins α: 36.48 ± 2.36%
  % Lipoproteins pre-β: 49.12%
  Chol. (plasma cholesterol): 85.15 ± 4.26 mg/100 ml
  TG (plasma triglycerides): 100.12 ± 15.16 mg/100 ml
In vivo
  LD50: 850 mg/kg
[1]; [4]
  change in vivo at 35 mg/kg: 63%
[1]; [5]
  change in vivo at 35 mg/kg: 44%

## C[N+](C)(C)CC(CC(=O)O)OC(=O)CC1C=CCC1 (centres unmarked) [2-cyclopenten ACAR]
In vivo
  LD50: 1200 mg/kg
[1]; [4]
  change in vivo at 100 mg/kg: 40%
[1]; [5]
  change in vivo at 100 mg/kg: 20%

## CC(C=O)C(=O)OC(CC(=O)[O-])C[N+](C)(C)C (centres unmarked) [formyl propionyl CAR]
mice
  LD50 and fiducial limits: 1010 (850-1170) mg kg^-1
[1]; 60 mg kg^-1 i.v.
  % increase of the latency time to onset of initial cardiac arrythmia: 55%
  % increase of the latency time to onset of tachycardia: 34%
[3]
  contractile force, mean ± ESM: 74.26 ± 4.15%

## CC(C)(C)CC(=O)OC(CC(=O)O)C[N+](C)(C)C (centres unmarked) [tert-butyl ACAR]
[2]; 350 mg kg^-1 oral
  % Lipoproteins β: 13.27 ± 1.12%
  % Lipoproteins α: 31.12 ± 2.17%
  % Lipoproteins pre-β: 51.36%
  Chol. (plasma cholesterol): 70.12 ± 3.24 mg/100 ml
  TG (plasma triglycerides): 99.36 ± 10.12 mg/100 ml
In vivo
  LD50: 1120 mg/kg
[1]; [4]
  change in vivo at 25 mg/kg: 59%
[1]; [5]
  change in vivo at 25 mg/kg: 36%

## C=CC(=O)OC(CC(=O)O)C[N+](C)(C)C (centres unmarked) [acrilyl-CAR]
In vivo
  LD50: 1380 mg/kg
[1]; [4]
  change in vivo at 50 mg/kg: 45%
[1]; [5]
  change in vivo at 50 mg/kg: 39%

## COC(=O)CCC(=O)OC(CC(=O)O)C[N+](C)(C)C (centres unmarked) [3-carbomethoxypropionyl CAR, 3-carbomethoxypropionyl carnitine chloride]
[2]; 350 mg kg^-1 oral
  % Lipoproteins β: 11.18 ± 1.15%
  % Lipoproteins α: 34.17 ± 3.23%
  % Lipoproteins pre-β: 50.03%
  Chol. (plasma cholesterol): 69.25 ± 3.26 mg/100 ml
  TG (plasma triglycerides): 88.15 ± 15.36 mg/100 ml
In vivo
  LD50: 985 mg/kg
[1]; [4]
  change in vivo at 25 mg/kg: 65%
[1]; [5]
  change in vivo at 25 mg/kg: 39%

## CCOCC(=O)OC(CC(=O)O)C[N+](C)(C)C (centres unmarked) [ethoxy ACAR, ethoxy acetyl carnitine chloride]
[2]; 250 mg kg^-1 oral
  % Lipoproteins β: 10.28 ± 1.52%
  % Lipoproteins α: 37.15 ± 2.17%
  % Lipoproteins pre-β: 42.15 ± 2.27%
  Chol. (plasma cholesterol): 70.26 ± 6.48 mg/100 ml
  TG (plasma triglycerides): 78.25 ± 10.12 mg/100 ml
In vivo
  LD50: 2120 mg/kg
[1]; [4]
  change in vivo at 20 mg/kg: 60%
[1]; [5]
  change in vivo at 20 mg/kg: 55%

## C=C[C@H]1C[N@@]2CC[C@H]1C[C@@H]2[C@@H](O)c1ccnc2ccc(OC)cc12 [Quinidine, reference compound]
[1]; [4]
  change in vivo at 8.9 mg/kg: 50%
[1]; [5]
  change in vivo at 8.9 mg/kg: 41.7%

## CCOCC(=O)O[C@H](CC(=O)O)C[N+](C)(C)C.[Cl-] [ethoxyacetyl CAR]
mice
  LD50 and fiducial limits: 760 (545-975) mg kg^-1
[1]; 100 mg kg^-1 i.v.
  % increase of the latency time to onset of initial cardiac arrythmia: 40%
  % increase of the latency time to onset of tachycardia: 20%
[3]
  contractile force, mean ± ESM: 62.25 ± 3.24%

## vinyl acetyl carnitine chloride [vinyl CAR]
[2]; 300 mg kg^-1 oral
  % Lipoproteins β: 14.13 ± 1.63%
  % Lipoproteins α: 29.46 ± 3.15%
  % Lipoproteins pre-β: 48.89 ± 2.96%
  Chol. (plasma cholesterol): 78.15 ± 6.16 mg/100 ml
  TG (plasma triglycerides): 112.15 ± 15.16 mg/100 ml
mice
  LD50 and fiducial limits: 1200 (800-1600) mg kg^-1
[1]; 38 mg kg^-1 i.v.
  % increase of the latency time to onset of initial cardiac arrythmia: 53%
  % increase of the latency time to onset of tachycardia: 41%
[3]
  contractile force, mean ± ESM: 48.25 ± 5.12%

## COCC(=O)OC(CC(=O)O)C[N+](C)(C)C (centres unmarked) [methoxy ACAR, methoxy acetyl carnitine chloride]
In vivo
  LD50: 1980 mg/kg
[1]; [4]
  change in vivo at 25 mg/kg: 65%
[1]; [5]
  change in vivo at 25 mg/kg: 50%

## CC(C)(O)C(=O)OC(CC(=O)O)C[N+](C)(C)C (centres unmarked) [2-hydroxy isobutyryl CAR]
[2]; 450 mg kg^-1 oral
  % Lipoproteins β: 10.36 ± 1.12%
  % Lipoproteins α: 27.19 ± 3.48%
  % Lipoproteins pre-β: 48.36 ± 1.15%
  Chol. (plasma cholesterol): 75.03 ± 4.12 mg/100 ml
  TG (plasma triglycerides): 100.29 ± 12.48 mg/100 ml
In vivo
  LD50: 1470 mg/kg
[1]; [4]
  change in vivo at 25 mg/kg: 55%
[1]; [5]
  change in vivo at 25 mg/kg: 48%
